Reference: patent US20230075368A1, “IDENTIFICATION OF AN EGFR-BIN3 PATHWAY THAT ACTIVELY SUPPRESSES INVASION AND REDUCES TUMOR SIZE IN GLIOBLASTOMA” (The United States Govemment as represented by the …, priority 2020, published 2023)

Tests used:
[1] = test system: GBM12 mouse intracranial tumors; test: Exogenous EGF infusion into GBM12 intracranial tumors; assay type: in vivo, mice; conditions: EGF infused into lateral ventricles by miniosmotic pump
Procedure: 4 to 6 weeks old female athymic nude mice were purchased from Charles River Laboratories. Mayo PDXs were injected into the right corpus striatum of the brains of 6-8 week-old nude mice using a stereotactic frame. […] Kaplan-Maier survival curves were calculated using GraphPad Prism 7.0 software. Alzet Osmotic pumps were installed for brain delivery of EGF or vehicle in tumor bearing mice. To monitor the mice with orthotropic xenografts, MRI was performed at the Mouse MRI Core, Advanced Imaging Research Center, at UT Southwestern.
Next, the impact of EGFR ligand on GBM invasion was examined in an orthotopic mouse model. To induce ligand activation of EGFR in vivo, ligand to EGFR-expressing tumors were provided by generating an autocrine loop or by exogenous infusion of ligand. In the autocrine loop experiment, ligand for EGFRwt is provided by the same cells that express the EGFR. Autocrine loops involving EGFR and its ligands are well described in GBM (Ramnarain et al. (2006) Cancer Res. 66: 867-874; Tang et al. (1997) J. Neurooncol. 35: 303-314). […]
Western blot analysis of TGFα, pEGFR, EGFR, and BIN3 in PDXs stably transfected with empty (GBM12V, GBM6V, GBM22V) or TGFα expressing vector (GBM12TGFα, GBM6TGFα, GBM22TGFα) is shown in FIG. 12A. […] Quantitative analysis of HNA positive cells in mouse tumor tissue sections. […]

[2] = test system: EMP1; test: Western blot of EMP1; assay type: cell-based, human; conditions: EGF 50 ng/ml, 24 hours; GBM12 and GBM6
Procedure: Whole protein extracts from cells or tumor tissues were analyzed by western blot as previously described (Altieri et al. (2015) Surg. Technol. Int 27: 297-302). Mayo PDX cells were serum starved overnight. Following treatment for specific time, cells were harvested and lysed. The human glioblastoma tissues were ground in liquid nitrogen and then were lysed. EGFR (06-847) antibody was from Millipore. DOCK7 was from Proteintech (Rosemont, Ill.). pEGFR (2236), STAT3 (12640), pSTAT3 (9145), cdc42(4376), and RhoA (4695) antibodies were from Cell Signaling Technology (Danvers, Mass.). TGFα antibody was from R&D system. BIN3 (sc-514396) and (3-Actin (sc-47778) were from Santa Cruz Biotechnology (Dallas, Tex.).
Referring to FIG. 23A-P, EGFR induced EMP1 overexpression drives invasion and is mediated by Nanog. Specifically, cells were transiently transfected with empty or EGFRwt or EGFRvIII vector for 48 hours, and subjected to Western blot analysis for EGFR, pEGFR, BIN3 and EMP1 (FIG. 23A). Similar experiments were performed in GBM14 (FIG. 23B). […] Similar experiments were performed in GBM14 (FIG. 23E). Efficiency of EMP1 knockdown and EGFR overexpression was confirmed by Western blot analysis (FIG. 23F and FIG. 23G). […] FIG. 23J and FIG. 23K show EMP1 mRNA levels in EGFR and EGFRvIII overexpressing GBM12 and GBM14, measured by RT-PCR. […]

[3] = test system: GBM12 and GBM6 cells; test: Scratch-wound assay; assay type: cell-based, human; conditions: EGF 50 ng/ml, 24 hours
Procedure: Cells were cultured in 6 well plate until they reached around 100% confluence. A scratch wound was produced on the monolayer using a sterile 200 ul pipette tip. The cell cultured with serum free DMEM containing EGF (50 ng/ml) or vehicle control. Images of wound were captured 0 and 24 hours after scratch generation.
Referring to FIG. 4A-D, an analysis of glioma cell migration by in vitro scratch assays is shown. […] Data are represented as mean±SEM from three independent experiments. ** P<0.01, unpaired two-tailed t-test.

## EGF: Recombinant human EGF (AF-100) from Peprotech; EGFR ligand
[1]
  tumor size (MRI): smaller tumors
[1]; H&E, SMI-31, HNA staining
  tumor invasiveness: noninvasive
[2]
  EMP1 level: does not affect EMP1 level
[3]
  migration (scratch wound closure): suppressing migration
